Measured values reported in PubChem BioAssay AID248 (DTP/NCI, 2004).
“And” between values parts separate entries of the source, which are not always exact repeats. Equal values may be shown once. Inconclusive results and toxic doses are left out. No stated cut-off is given here; in the data, active means T/C of 150% or more; inactive means T/C below 125%. Square brackets hold non-standard residues; d marks the D form. Peptide text beside a SMILES is read from it. * marks the point of attachment. NMeY = CN[CH](Cc1ccc(O)cc1)C(=O)O; Bn = c1ccc(C*)cc1

Tested on: L1210 leukemia ip in BDF1 mice, survival T/C
Test: NCI In Vivo Anticancer Drug Screen. Data for tumor model L1210 Leukemia (intraperitoneal) in B6D2F1 (BDF1) mice
Details: endpoint: mean survival time, higher = longer survival
Outline: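 Antitumor effect is assessed in tumor-bearing animals. Survival in the compound arm is compared with a vehicle-dosed control arm and expressed as their quotient.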

[1] = dose: 100.0 mg/kg/injection, schedule: Q04DX002 (ip), vehicle: Klucel (hydroxypropylcellulose) (HPC)
[2] = dose: 200.0 mg/kg/injection, schedule: Q04DX002 (ip), vehicle: Klucel (hydroxypropylcellulose) (HPC)
[3] = dose: 400.0 mg/kg/injection, schedule: Q04DX002 (ip), vehicle: Klucel (hydroxypropylcellulose) (HPC)
[4] = dose: 100.0 mg/kg/injection, schedule: Q04DX003 (ip), vehicle: saline with Tween-80
[5] = dose: 200.0 mg/kg/injection, schedule: Q04DX003 (ip), vehicle: saline with Tween-80
[6] = dose: 400.0 mg/kg/injection, schedule: Q04DX003 (ip), vehicle: saline with Tween-80
[7] = dose: 50.0 mg/kg/injection, schedule: Q01DX009 (ip), vehicle: Klucel (hydroxypropylcellulose) (HPC)
[8] = dose: 50.0 mg/kg/injection, schedule: Q04DX003 (ip), vehicle: saline with Tween-80
[9] = dose: 100.0 mg/kg/injection, schedule: Q01DX009 (ip), vehicle: Klucel (hydroxypropylcellulose) (HPC)
[10] = dose: 200.0 mg/kg/injection, schedule: Q01DX009 (ip), vehicle: Klucel (hydroxypropylcellulose) (HPC)
[11] = dose: 400.0 mg/kg/injection, schedule: Q01DX009 (ip), vehicle: Klucel (hydroxypropylcellulose) (HPC)

Measured: T/C

CNc1n[nH]c(=S)s1
inactive: [1] 101 % of control | [2] 104 % of control | [3] 104 % of control

N=N/C(=C\c1c(O)[nH]c2ccccc12)c1ccccc1
inactive: dose: 100.0 mg/kg/injection, schedule: Q04DX002 (ip), vehicle: gum acacia 92 % of control | dose: 200.0 mg/kg/injection, schedule: Q04DX002 (ip), vehicle: gum acacia 89 % of control | dose: 400.0 mg/kg/injection, schedule: Q04DX002 (ip), vehicle: gum acacia 100 % of control

Cn1cc(F)c(=O)[nH]c1=O
inactive: dose: 5.0 mg/kg/injection, schedule: Q01DX Z (ip), vehicle: carboxymethylcellulose (CMC) 96 % of control | dose: 10.0 mg/kg/injection, schedule: Q01DX Z (ip), vehicle: carboxymethylcellulose (CMC) 100 % of control | dose: 20.0 mg/kg/injection, schedule: Q01DX Z (ip), vehicle: carboxymethylcellulose (CMC) 113 % of control | dose: 40.0 mg/kg/injection, schedule: Q01DX Z (ip), vehicle: carboxymethylcellulose (CMC) 96 % of control

CSc1ccc(C(=O)NN)cc1
inactive: dose: 50.0 mg/kg/injection, schedule: Q01DX001 (ip), vehicle: saline 101 % of control | dose: 100.0 mg/kg/injection, schedule: Q01DX001 (ip), vehicle: saline 101 % of control | dose: 200.0 mg/kg/injection, schedule: Q01DX001 (ip), vehicle: saline 101 % of control | dose: 400.0 mg/kg/injection, schedule: Q01DX001 (ip), vehicle: saline 104 % of control

CCCC(=O)OC1CC(C)CCC1C(C)C (stereo not drawn)
inactive: dose: 25.6 mg/kg/injection, schedule: Q04DX002 (ip), vehicle: saline with Tween-80 96 % of control | dose: 64.0 mg/kg/injection, schedule: Q04DX002 (ip), vehicle: saline with Tween-80 96 % of control | dose: 100.0 mg/kg/injection, schedule: Q01DX009 (ip), vehicle: saline with Tween-80 90 % of control | [4] 88 % of control | dose: 160.0 mg/kg/injection, schedule: Q04DX002 (ip), vehicle: saline with Tween-80 92 % of control | dose: 200.0 mg/kg/injection, schedule: Q01DX009 (ip), vehicle: saline with Tween-80 94 % of control | [5] 94 % of control | dose: 400.0 mg/kg/injection, schedule: Q01DX009 (ip), vehicle: saline with Tween-80 92 % of control | dose: 400.0 mg/kg/injection, schedule: Q04DX002 (ip), vehicle: saline with Tween-80 96 % of control | [6] 100 % of control

O=S1(=O)C2CCCC1CCC2
inactive: dose: 10.0 mg/kg/injection, schedule: Q01DX001 (ip), vehicle: saline 98 % of control and 109 % of control | dose: 40.0 mg/kg/injection, schedule: Q01DX001 (ip), vehicle: saline 102 % of control | dose: 75.0 mg/kg/injection, schedule: Q01DX001 (ip), vehicle: saline 109 % of control | dose: 150.0 mg/kg/injection, schedule: Q01DX001 (ip), vehicle: saline 100 % of control | dose: 300.0 mg/kg/injection, schedule: Q01DX001 (ip), vehicle: saline 104 % of control

CCOC(=O)CCCN(c1sc(C)c(C)c1C(=O)OCC)S(=O)(=O)c1ccc(C)cc1
inactive: [7] 86 % of control | [8] 97 % of control | [9] 105 % of control | [4] 97 % of control | [10] 86 % of control | [5] 97 % of control | [11] 90 % of control | [6] 101 % of control

Cc1ccc2c(c1)-c1[nH]c3ccccc3c1CS2
inactive: dose: 100.0 mg/kg/injection, schedule: Q04DX003 (ip), vehicle: acetone 105 % of control | dose: 200.0 mg/kg/injection, schedule: Q04DX003 (ip), vehicle: acetone 110 % of control

CCCCCCCCOc1ccc(C=Nc2ccc(CC)cc2)cc1
inactive: [9] 97 % of control | [10] 86 % of control | [11] 91 % of control

CCc1nc(=O)c2ccccc2n1C
inactive: dose: 1.5 mg/kg/injection, schedule: Q01DX001 (ip), vehicle: saline 100 % of control | dose: 3.0 mg/kg/injection, schedule: Q01DX001 (ip), vehicle: saline 95 % of control | dose: 6.0 mg/kg/injection, schedule: Q01DX001 (ip), vehicle: saline 107 % of control

CCOC(=O)c1cc(C(=O)O)[nH]c(=O)c1C#N
inactive: [4] 97 % of control | [6] 95 % of control

NC(CCC(=O)NC1(C(=O)O)C2CC3CC(C2)CC1C3)C(=O)O (stereo not drawn)
inactive: [9] 87 % of control | [10] 103 % of control | [11] 89 % of control

Cn1c(CN(CCCl)CCCl)nc2c1c(=O)[nH]c(=O)n2C
inactive: dose: 50.0 mg/kg/injection, schedule: Q01DX001 (ip), vehicle: carboxymethylcellulose (CMC) 108 % of control | dose: 100.0 mg/kg/injection, schedule: Q01DX001 (ip), vehicle: carboxymethylcellulose (CMC) 102 % of control | dose: 178.0 mg/kg/injection, schedule: Q01DX001 (ip), vehicle: carboxymethylcellulose (CMC) 109 % of control | dose: 200.0 mg/kg/injection, schedule: Q01DX001 (ip), vehicle: carboxymethylcellulose (CMC) 119 % of control | dose: 267.0 mg/kg/injection, schedule: Q01DX001 (ip), vehicle: carboxymethylcellulose (CMC) 111 % of control and 116 % of control | dose: 400.0 mg/kg/injection, schedule: Q01DX001 (ip), vehicle: carboxymethylcellulose (CMC) 93 % of control | dose: 600.0 mg/kg/injection, schedule: Q01DX001 (ip), vehicle: carboxymethylcellulose (CMC) 90 % of control

CNC(Cc1ccc(OCc2ccccc2)cc1)C(=O)NC(CC(C)C)C(=O)OC (stereo not drawn) (H-[NMeY](Bn)-Leu-OMe; configuration not given here)
inactive: dose: 50.0 mg/kg/injection, schedule: Q01DX009 (ip), vehicle: saline 97 % of control | dose: 100.0 mg/kg/injection, schedule: Q01DX009 (ip), vehicle: saline 100 % of control | dose: 100.0 mg/kg/injection, schedule: Q04DX003 (ip), vehicle: saline 104 % of control | dose: 200.0 mg/kg/injection, schedule: Q04DX003 (ip), vehicle: saline 102 % of control

[Cl][Ho]([Cl])[Cl]
inactive: dose: 100.0 mg/kg/injection, schedule: Q01DX005 (ip), vehicle: Klucel (hydroxypropylcellulose) (HPC) 94 % of control | [9] 98 % of control | [1] 88 % of control | dose: 200.0 mg/kg/injection, schedule: Q01DX005 (ip), vehicle: Klucel (hydroxypropylcellulose) (HPC) 98 % of control | [10] 95 % of control | [2] 98 % of control | dose: 400.0 mg/kg/injection, schedule: Q01DX005 (ip), vehicle: Klucel (hydroxypropylcellulose) (HPC) 88 % of control | [3] 109 % of control

CN(C)c1ccc([PH+](c2ccc(N(C)C)cc2)c2ccc(N(C)C)cc2)cc1.CN(C)c1ccc([PH+](c2ccc(N(C)C)cc2)c2ccc(N(C)C)cc2)cc1.[Cl][Hg][Cl]
inactive: [7] 94 % of control | [9] 90 % of control | [10] 90 % of control

CC[CH2][Pb]([CH2]CC)([CH2]CC)[O]C(=O)CCl
inactive: dose: 3.0 mg/kg/injection, schedule: Q01DX009 (ip), vehicle: Klucel (hydroxypropylcellulose) (HPC) 106 % of control | dose: 6.0 mg/kg/injection, schedule: Q01DX009 (ip), vehicle: Klucel (hydroxypropylcellulose) (HPC) 101 % of control | dose: 12.5 mg/kg/injection, schedule: Q01DX009 (ip), vehicle: Klucel (hydroxypropylcellulose) (HPC) 96 % of control

CC[PH+]1c2ccccc2-c2ccccc21.CC[PH+]1c2ccccc2-c2ccccc21.CC[PH+]1c2ccccc2-c2ccccc21.[Br][Ni][Br]
inactive: dose: 12.5 mg/kg/injection, schedule: Q04DX003 (ip), vehicle: saline with Tween-80 98 % of control | dose: 25.0 mg/kg/injection, schedule: Q04DX003 (ip), vehicle: saline with Tween-80 98 % of control | [8] 102 % of control
